Reference: article PMC12044326 (Clinical Pharmacology in Drug Development, 2025)

Experiments:
[1] = system: CYP3A4; design: method as in PMID 15242978, PMID 9929500; conditions: cited from earlier work
[2] = in vitro; conditions: human, Caco-2
Procedure: Caco-2 cells were obtained from American Type Culture Collection. Prior to the experiments,
the cells were seeded on 55 cm2 bottom culture dishes (Corning). The cells were cultured at
37°C in a humidified CO2 (5%) incubator and routinely passaged about once a week. Caco-2
cultured in the medium at 37°C in a humidified CO2 (5%) incubator for 23 days to prepare cell
The medium was changed 4 days after seeding and then changed every 2 or 3 days
thereafter. Before the experiment, the integrity of the Caco-2 cell monolayer was checked by
measuring the trans-epithelial electrical resistance (TEER) value. The TEER values of cell
In the transport experiments, the medium of top side of the cells (apical side) and basal
side of the cells (basal side) were replaced with the DMSO-HBSS solution, the inhibitor-HBSS
control), or the test solutions (digoxin and mannitol as substrates). The volumes of the replaced
solutions were 300 μL for the apical side and 1 mL for the basal side. The DMSO-HBSS […]
of the solution in each basal side (receiver side) were collected and measured for the
radioactivity using an LSC. […]
collected and measured for the radioactivity using an LSC. […]
side (receiver side) were collected and measured for the radioactivity using an LSC. […]
in each apical side and each basal side (donor side) were collected and measured for the
radioactivity using an LSC.

| Structure (SMILES) | CYP3A4 inhibitor potency over ketoconazole [1] [fold] | Papp [2] [×10⁻⁶ cm/s] |
| --- | --- | --- |
| CCC(C)n1ncn(-c2ccc(N3CCN(c4ccc(OCC5COC(Cn6cncn6)(c6ccc(Cl)cc6Cl)O5)cc4)CC3)cc2)c1=O (centres unmarked) [itraconazole] | ~10 |  |
| CC(C)NCC(O)COc1cccc2ccccc12 (centres unmarked) [propranolol, reference compound] |  | 27.8 |
